Tested on: diamondback moth, Plutella xylostella
Experiment: Cabbage leaf bioassay (track sprayer) against second instar diamondback moth; synergy judged by Colby's equation
Assay type: in vivo
Conditions: single active, dose rate 0.0025 weight %, 400 L/Ha spray
Description: The method described in Colby S. R., “Calculating Synergistic and Antagonistic Responses of Herbicide Combinations,” Weeds, 1967, 15, 20-22 was used to determine an existence of synergic effect between the juvenile hormone mimicking compound and the pesticide (I), (II), or any agriculturally acceptable salt thereof in the formulated pesticidal composition. In this method, the percent insect control of the formulated pesticidal composition as observed in the study was compared to the “expected” percent control (E) as calculated by equation (1) (hereinafter “Colby's equation”) below: […]
Bioassays were performed for different active compounds. Cabbage plants with about two to three new-growth-true leaf stage were treated with different active compounds using a track sprayer application at 400 L/Ha spray volume. Three second instar diamondback moths, Plutella xylostella, were infested onto each leaf disc. The percent control of the pesticidal composition against diamondback moth, Plutella xylostella, was determined as the “Observed” action, and compared to those obtained by using about 0.0025 weight % of Compound II, and using about 0.000391 weight % of pyriproxyfen alone. The “Colby's Expected Action” was calculated using Colby's equation as discussed previously. […]
The percent control may be determined some time after treatment.

Structure (SMILES)	% Control Three Days After Treatment [%]
CCN(C(=O)CCSCCC(F)(F)F)c1cn(-c2cccnc2)nc1Cl [Compound I, N-(3-chloro-1-(pyridin-3-yl)-1H-pyrazol-4-yl)-N-ethyl-3-((3,3,3-trifluoropropyl)thio)propanamide]	0
CCN(C(=O)CC[S+]([O-])CCC(F)(F)F)c1cn(-c2cccnc2)nc1Cl (centres unmarked) [Compound II, N-(3-chloro-1-(pyridin-3-yl)-1H-pyrazol-4-yl)-N-ethyl-3-((3,3,3-trifluoropropyl)sulfinyl)propanamide]	0

Source: patent US20150111737A1, “SYNERGISTIC PESTICIDAL COMPOSITIONS AND RELATED METHODS” (Dow AgroSciences LLC, priority 2013, published 2015)
